The test system of data set [1] is H358 cells. The data set is described as follows: H358 cell proliferation inhibition (CellTiter-Glo luminescent cell viability assay). In kind it is cell-based. The following applies: Homo sapiens, NCI-H358, 168 h, 7 days. An outline of the steps:
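H358 cells seeded at 3000 cells/well in RPMI1640/10% FBS, treated with compound for 7 days at 37 °C/5% CO2. Viability read by CellTiter-Glo 3D luminescence, normalised to cell-free (100%) and compound-free (0%) controls; IC50 fitted from 8 concentrations by four-parameter curve.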
Background: In ATP-based viability assays light output follows the ATP content of the culture.

The nature of data set [2]: Plasma protein binding rate by equilibrium dialysis. In kind it is in vitro ADME. Conditions: CD-1 mouse plasma, 1 µM compound, 6 h dialysis at 37 °C. As for the experimental part:
• 1. CD-1 mouse plasma (BioIVT) • 2. 96-well equilibrium dialysis plate (HTDialysis LLC, Gales Ferry, CT, HTD96B) and equilibrium dialysis membrane (MWCO 12-14K, #1101) • 3. Positive control compound warfarin • 4. ABI QTrap 5500 liquid chromatography-mass spectrometry system
• 1. Preparation of a buffer with a concentration of 100 mM sodium phosphate and 150 mM NaCl: an alkaline solution with a concentration of 14.2 g/L Na2HPO4 and 8.77 g/L NaCl was prepared with ultrapure water, and an acidic solution with a concentration of 12.0 g/L NaH2PO4 and 8.77 g/L NaCl was prepared with ultrapure water. The alkaline solution was titrated with the acidic solution until the pH was 7.4 to prepare a buffer with a concentration of 100 mM sodium phosphate and 150 mM NaCl. • 2. Preparation of a dialysis membrane: the dialysis membrane was soaked in ultrapure water for 60 min to separate the membrane into two pieces, then soaked with 20% ethanol for 20 min, and finally soaked with dialysis buffer for 20 min. • 3. Preparation of plasma: the frozen plasma was quickly thawed at room temperature and then centrifuged at 3,220 g at 4 °C for 10 min to remove clots, and the supernatant was collected to a new centrifuge tube. The pH of the plasma was measured and recorded. The plasma with pH 7-8 was used. • 4. Preparation of a plasma sample containing the compound: A 10 mM stock solution of the compound or the positive control compound was diluted with DMSO to give a 200 µM working solution. 3 µL of 200 µM of the compound working solution was added to 597 µL of mouse plasma to give a plasma sample with a final concentration of 1 µM. • 5. Equilibrium dialysis procedures: a dialysis device was assembled according to the instructions. […]
The peak areas of the compound on the buffer side and the plasma side were measured. The plasma protein binding rate of the compound was calculated by the following formula: [formula] %Binding rate = 1−%Free rate [formula]
All data were calculated by Microsoft Excel software. […]
(In equilibrium dialysis free small molecules cross a membrane that holds back macromolecules.)

Consider `COc1c(=O)n(N2CCOCC2)cc2c(N[C@H](C)c3cccc(C(F)F)c3F)nc(C)nc12` [Example 20, (R)-4-((1-(3-(difluoromethyl)-2-fluorophenyl)ethyl)amino)-8-methoxy-2-methyl-6-morpholinepyrido[4,3-d]pyrimidine-7(6H)-one], for which, in data set [1], the IC50 was 98.2 nM. Consider `[2H]C([2H])([2H])Oc1c(=O)n(C2(CF)CC2)cc2c(N[C@H](C)c3cccc(C(F)F)c3F)nc(C)nc12` [Example 23, (R)-4-((1-(3-(difluoromethyl)-2-fluorophenyl)ethyl)amino)-6-(1-(fluoromethyl)cyclopropyl)-8-(methoxy-d3)-2-methylpyrido[4,3-d]pyrimidine-7(6H)-one], for which the IC50 in data set [1] amounted to 118 nM. In addition, the “%Binding rate” value in data set [2] came out at 91.3%.

Compound `Cc1nc(N[C@H](C)c2cccc(C(F)F)c2F)c2cn(C3(CF)CC3)c(=O)c(N3CCOCC3)c2n1` [Example 34, (R)-4-((1-(3-(difluoromethyl)-2-fluorophenyl)ethyl)amino)-6-(1-(fluoromethyl)cyclopropyl)-2-methyl-8-morpholinylpyrido[4,3-d]pyrimidine-7(6H)-one] came in with an IC50 in data set [1] of 12.3 nM. As to `Cc1nc(N[C@H](C)c2cccc(C(F)F)c2F)c2cn(C3(CF)CC3)c(=O)c(N3CCOC[C@@H]3C)c2n1` [Example 40, 4-(((R)-1-(3-(difluoromethyl)-2-fluorophenyl)ethyl)amino)-6-(1-(fluoromethyl)cyclopropyl)-2-methyl-8-((S)-3-methylmorpholine)pyrido[4,3-d]pyrimidine-7(6H)-one], the IC50 in data set [1] came to 14.2 nM. For the same compound, in data set [2], the “%Binding rate” value is given as 92.9%.

In turn, `[2H][C@](C)(Nc1nc(C)nc2c(N3CCOCC3)c(=O)n(C3(CF)CC3)cc12)c1cccc(C(F)F)c1F` [Example 55, (R)-4-((1-(3-(difluoromethyl)-2-fluorophenyl)ethyl-1-d)amino)-6-(1-(fluoromethyl)cyclopropyl)-2-methyl-8-morpholinylpyrido[4,3-d]pyrimidine-7(6H)-one] had a concentration for half-maximal inhibition (IC50) in data set [1] of 24.3 nM. In data set [2], the “%Binding rate” value is 95.7%.

What is called IC50 is the midpoint of a concentration-inhibition curve. A lower IC50 goes with greater potency in that assay.
